According to US7456197B2, “Pyridinium cationic lipids as gene transfer agents” (The Texas A&M University System, priority 2003, dated 2008):

What was measured:
[1] = Critical (phase transition) temperature Tc by differential scanning calorimetry; format: physicochemical
In short: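 Phase transition temperature Tc of the cationic lipids measured by differential scanning calorimetry at a heating rate of 5 °C/minute.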

[2] = test system: breast carcinoma MDA-Mb231; experiment: Luciferase (pGL3) transfection efficiency of lipoplexes, MDA-Mb231; format: cell-based; settings: optimized lipoplexes, Chol 1:1, FIG. 7
Description: (§1) It is well known that specific cell types and cell lines may vary in their ability to be transfected. In addition to the NCI-H23 lung cancer cell line, we therefore tested our optimized formulation of 5AMyr/Chol 1:1 versus DOTAP/Chol 1:1 as reference on four other cell lines from tumors representing cancers of great importance to human health, as well as different tissues of origin: breast carcinomas MCF-7, MDA-Mb231, prostate carcinoma DU-145 and glioma SWB-95 (FIG. 7).
(§2) Dioleoylphosphatidylethanolamine (DOPE), cholesterol (CHOL), N-(2,3-dioleoyloxypropyl)-N,N,N-trimethylammonium chloride (DOTAP) were commercial products. The purity of the lipids was checked by thin layer chromatography and also by differential scanning calorimetry (DSC), which was also used for determining the critical temperature Tc. For the preparation of the liposomes a protocol optimized for this type of compounds was adopted as follows. The cationic lipid (with or without helper lipid) was dissolved in chloroform/methanol (2/1, v/v) to reach a final concentration of 1 mM for the charged species. […]
(§3) For the luciferase assay, 20 μL of cell lysate was aliquoted in a test tube and assessed directly using a luciferase assay kit from Promega by means of a luminometer.
(§4) The protein content was quantified using a bicinchoninic acid (BCA) assay. […]

breast carcinoma MCF-7 = experiment: Luciferase (pGL3) transfection efficiency of lipoplexes, MCF-7; format: cell-based; settings: optimized lipoplexes, Chol 1:1, FIG. 7
Description: as §1, §2, §3, §4

[3] = test system: prostate carcinoma DU-145; experiment: Luciferase (pGL3) transfection efficiency of lipoplexes, DU-145; format: cell-based; settings: optimized lipoplexes, Chol 1:1, FIG. 7
Description: as §1, §2, §3, §4

Structure (SMILES): CCCCCCCCCCCCCC(=O)OCC(COC(=O)CCCCCCCCCCCCC)[n+]1c(C)cc(C)cc1C.F[P-](F)(F)(F)(F)F [Lipid 5AMyr, 1-(1,3-dimyristoyloxypropane-2-yl)-2,4,6-trimethylpyridinium hexafluorophosphate]
- Tc (critical temperature), Pure ([1]; pure lipid): 67.8 °C
- Tc (critical temperature), With DOPE (1:1 molar ratio) ([1]; with DOPE, 1:1 molar ratio): 22.4 °C
- Tc (critical temperature), With cholesterol (1:1 molar ratio) ([1]; with cholesterol, 1:1 molar ratio): 64.8 °C
- transfection efficiency (luciferase activity normalized for protein) [2]: 2950 RLU/μg of protein
- transfection efficiency (luciferase activity normalized for protein) (breast carcinoma MCF-7): 206000 RLU/μg of protein
- transfection efficiency (luciferase activity normalized for protein) [3]: 327 RLU/μg of protein
